In PubChem BioAssay (NCI):
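The compound was tested at five concentrations on cells cultured in 96-well plates, with a 48-hour exposure period. Here, GI50 denotes the concentration required for 50% inhibition of growth. TGI: concentration producing complete growth inhibition.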

Legend:
Experiment in all cases: NCI tumour cell line growth inhibition, 48 h
A549 NSCLC = test system: A549 NSCLC
A498 renal = test system: A498 renal
KM12 colon = test system: KM12 colon
UACC-257 melanoma = test system: UACC-257 melanoma
OVCAR-8 ovarian = test system: OVCAR-8 ovarian
BT-549 breast = test system: BT-549 breast
HS 578T breast = test system: HS 578T breast
DU-145 prostate = test system: DU-145 prostate
T-47D breast = test system: T-47D breast
HOP-92 NSCLC = test system: HOP-92 NSCLC
SR leukemia = test system: SR leukemia
SF-539 CNS = test system: SF-539 CNS
NCI-H460 lung = test system: NCI-H460 lung
HL-60(TB) leukemia = test system: HL-60(TB) leukemia
RXF 393 renal = test system: RXF 393 renal
U251 CNS = test system: U251 CNS
ACHN renal = test system: ACHN renal
NCI/ADR-RES ovarian = test system: NCI/ADR-RES ovarian
HCT-116 colon = test system: HCT-116 colon
MCF7 breast = test system: MCF7 breast
MOLT-4 leukemia = test system: MOLT-4 leukemia
OVCAR-4 ovarian = test system: OVCAR-4 ovarian
K-562 leukemia = test system: K-562 leukemia
NCI-H226 lung = test system: NCI-H226 lung
MDA-MB-435 = test system: MDA-MB-435
TK-10 renal = test system: TK-10 renal
HT29 colon = test system: HT29 colon
SNB-75 CNS = test system: SNB-75 CNS
OVCAR-5 ovarian = test system: OVCAR-5 ovarian
NCI-H23 lung = test system: NCI-H23 lung
SNB-19 CNS = test system: SNB-19 CNS
MALME-3M melanoma = test system: MALME-3M melanoma
MDA-MB-231 breast = test system: MDA-MB-231 breast
RPMI-8226 leukemia = test system: RPMI-8226 leukemia
CAKI-1 renal = test system: CAKI-1 renal
PC-3 prostate = test system: PC-3 prostate
HCC-2998 colon = test system: HCC-2998 colon
LOX IMVI melanoma = test system: LOX IMVI melanoma
SK-MEL-2 melanoma = test system: SK-MEL-2 melanoma
SK-MEL-5 melanoma = test system: SK-MEL-5 melanoma
SK-OV-3 ovarian = test system: SK-OV-3 ovarian
UO-31 renal = test system: UO-31 renal
CCRF-CEM leukemia = test system: CCRF-CEM leukemia
COLO 205 colon = test system: COLO 205 colon
786-0 renal = test system: 786-0 renal
HCT-15 colon = test system: HCT-15 colon
SW-620 colon = test system: SW-620 colon
SN12C renal = test system: SN12C renal
UACC-62 melanoma = test system: UACC-62 melanoma
OVCAR-3 ovarian = test system: OVCAR-3 ovarian
SF-268 CNS = test system: SF-268 CNS
SK-MEL-28 melanoma = test system: SK-MEL-28 melanoma
M14 melanoma = test system: M14 melanoma
HOP-62 NSCLC = test system: HOP-62 NSCLC
IGROV1 ovarian = test system: IGROV1 ovarian

## C/C(O)=C(\C#N)C(=O)Nc1ccc(C(F)(F)F)cc1
A549 NSCLC
  GI50: 26.5 µM
  TGI: > 100 µM
A498 renal
  GI50: 1.36 µM
  TGI: 52.9 µM
KM12 colon
  GI50: 23.9 µM
  TGI: > 100 µM
UACC-257 melanoma
  GI50: > 100 µM
  TGI: > 100 µM
OVCAR-8 ovarian
  GI50: 13.5 µM
  TGI: > 100 µM
BT-549 breast
  GI50: 51.7 µM
  TGI: > 100 µM
HS 578T breast
  GI50: 39.1 µM
  TGI: > 100 µM
DU-145 prostate
  GI50: 46.7 µM
  TGI: > 100 µM
T-47D breast
  GI50: 92 µM
  TGI: > 100 µM
HOP-92 NSCLC
  GI50: 13.4 µM
  TGI: > 100 µM
SR leukemia
  GI50: > 100 µM
  TGI: > 100 µM
SF-539 CNS
  GI50: 16 µM
  TGI: > 100 µM
NCI-H460 lung
  GI50: 8.92 µM
  TGI: > 100 µM
HL-60(TB) leukemia
  GI50: 64.3 µM
  TGI: > 100 µM
RXF 393 renal
  GI50: 18.6 µM
  TGI: > 100 µM
U251 CNS
  GI50: 5.34 µM
  TGI: > 100 µM
ACHN renal
  GI50: 45.7 µM
  TGI: > 100 µM
NCI/ADR-RES ovarian
  GI50: 21.4 µM
  TGI: > 100 µM
HCT-116 colon
  GI50: 7.5 µM
  TGI: > 100 µM
MCF7 breast
  GI50: 38.5 µM
  TGI: > 100 µM
MOLT-4 leukemia
  GI50: 67.9 µM
  TGI: > 100 µM
OVCAR-4 ovarian
  GI50: 91 µM
  TGI: > 100 µM
K-562 leukemia
  GI50: 8.13 µM
  TGI: > 100 µM
NCI-H226 lung
  GI50: 98 µM
  TGI: > 100 µM
MDA-MB-435
  GI50: 37.1 µM
  TGI: > 100 µM
TK-10 renal
  GI50: > 100 µM
  TGI: > 100 µM
HT29 colon
  GI50: 44.6 µM
  TGI: > 100 µM
SNB-75 CNS
  GI50: > 100 µM
  TGI: > 100 µM
OVCAR-5 ovarian
  GI50: > 100 µM
  TGI: > 100 µM
NCI-H23 lung
  GI50: 73.7 µM
  TGI: > 100 µM
SNB-19 CNS
  GI50: 24.5 µM
  TGI: > 100 µM
MALME-3M melanoma
  GI50: 62.8 µM
  TGI: > 100 µM
MDA-MB-231 breast
  GI50: 26.3 µM
  TGI: > 100 µM
RPMI-8226 leukemia
  GI50: 24.8 µM
  TGI: > 100 µM
CAKI-1 renal
  GI50: 5.46 µM
  TGI: > 100 µM
PC-3 prostate
  GI50: 7.97 µM
  TGI: > 100 µM
HCC-2998 colon
  GI50: 45.2 µM
  TGI: > 100 µM
LOX IMVI melanoma
  GI50: 8.21 µM
  TGI: > 100 µM
SK-MEL-2 melanoma
  GI50: 73.2 µM
  TGI: > 100 µM
SK-MEL-5 melanoma
  GI50: 15.9 µM
  TGI: > 100 µM
SK-OV-3 ovarian
  GI50: 94.5 µM
  TGI: > 100 µM
UO-31 renal
  GI50: 18.1 µM
  TGI: > 100 µM
CCRF-CEM leukemia
  GI50: 18.5 µM
  TGI: > 100 µM
COLO 205 colon
  GI50: 47.3 µM
  TGI: > 100 µM
786-0 renal
  GI50: 34.3 µM
  TGI: > 100 µM
HCT-15 colon
  GI50: 5.96 µM
  TGI: > 100 µM
SW-620 colon
  GI50: 36.4 µM
  TGI: > 100 µM
SN12C renal
  GI50: 29.1 µM
  TGI: > 100 µM
UACC-62 melanoma
  GI50: 15.6 µM
  TGI: > 100 µM
OVCAR-3 ovarian
  GI50: 37 µM
  TGI: > 100 µM
SF-268 CNS
  GI50: 15 µM
  TGI: > 100 µM
SK-MEL-28 melanoma
  GI50: 69.5 µM
  TGI: > 100 µM
M14 melanoma
  GI50: 52.5 µM
  TGI: > 100 µM
HOP-62 NSCLC
  GI50: 77.9 µM
  TGI: > 100 µM
IGROV1 ovarian
  GI50: 28.4 µM
  TGI: > 100 µM
